From patent publication US5424185A, “Human high-affinity neurotransmitter uptake system” (Baylor College of Medicine, priority 1990, dated 1995)
Several values for one entry are separate records, joined by “and”; a condition that tells them apart may be missing. Identical values can stand only once. Like-named read-outs stand apart in the source and are kept apart here.

Assays:
[1] = tested on: GABA transporter (L-GAB1 cells); assay: [3H]GABA uptake by L-GAB1 cells; format: cell-based, human; settings: for inhibition of total [3H]GABA uptake by L-GAB1 cells: effect saturating by 100 μM; for effect of GABA uptake inhibitors on [3H]GABA uptake by L-GAB1 cells: inhibitor 1 to 100 μM; for ligand-specificity of [3H]GABA uptake by L-GAB1 cells: competitor at 100-fold excess relative to [3H]GABA
Description: Using concentrations of [^3 H] GABA ranging from 2 to 500 μM, the kinetic profile of GABA uptake was determined for both L-GAB1 and L-M cells. The initial velocity of GABA uptake was measured and plotted against the corresponding [^3 H] GABA concentration for both cell lines. […] The velocity profile for L-GAB1 cells was subtracted by that of L-M cells, and the resulting data used for a double-reciprocal plot of velocity-^1 against GABA concentration-^1. The velocity profile for L-M cells was also transformed into a double-reciprocal plot.
Several known inhibitors of high-affinity GABA uptake were used to examine their efficacies in inhibiting [^3 H] GABA uptake by L-GAB1 cells. […] Each of these agents was used at several concentrations ranging from 1 to 100 μM in assays of [^3 H] GABA uptake by L-GAB1 cells. […] GABA uptake by L-GAB1 cells.
L-GAB1 cells were also analyzed in terms of their ligand-specificity in the high-affinity GABA uptake mechanism.

[2] = tested on: neuronal and glial GABA uptake systems in the CNS; settings: literature, cited from earlier work; for IC50: neuronal and glial uptake systems, read-out: IC50, high-affinity GABA uptake in the CNS
[3] = target: T1, human 5HT transporter (L-S1 cells) (Homo sapiens, UniProt P31645); assay: [3H]-5-HT uptake by L-S1 cells; format: cell-based
T1 construct: expressed in transfected cells; host or cells: mouse L-M fibroblasts (ATCC CCL 1.2) transfected with total human genomic DNA and pSV2neo; clone L-S1
Description: The cells were incubated at 37° C. for an additional 40 min.
L-S1 and L-M cells were preplated into 96-well culture plates. For uptake assays, the growth medium was removed from each well and the cells rinsed several times with oxygenated Ringer's buffer supplemented with 0.5 mM pargyline and 0.5 mM ascorbate. […] […] […] The cells remaining in the wells were lysed with 1% sodium dodecyl sulphate (SDS) and transferred to counting vials containing 5 ml of ACS scintillant (Amersham), for liquid scintillation spectrometry. For each assay, 6-8 parallel sets of wells were assayed simultaneously.
(§1) Non-specific activity was determined from parallel assays carried out at 0° C. Initial velocities were calculated in terms of pmol/mg protein/min by subtracting velocity values obtained at 0° C. from those obtained at 37° C.
(§2) Cells were assayed in the presence of each inhibitor for 40 minutes at 37° C., washed with Ringer's buffer and prepared for counting as previously described. Five confluent wells were assayed at each inhibitor concentration. The IC50 value for each inhibitor was determined by plotting the percent activity against the logarithm of inhibitor concentration. Measured levels of uptake in the presence of inhibitors were expressed as the percentage of maximal uptake (100 %) in the absence of inhibitor.

[4] = target: T2, human 5HT transporter (L-S2 cells) (Homo sapiens, UniProt P31645); assay: [3H]-5-HT uptake by L-S2 cells; format: cell-based
T2 construct: expressed in transfected cells; host or cells: mouse L-M fibroblasts (ATCC CCL 1.2) transfected with total human genomic DNA and pSV2neo; clone L-S2
Description: (§3) L-S1 and L-M cells were preplated into 96-well culture plates. For uptake assays, the growth medium was removed from each well and the cells rinsed several times with oxygenated Ringer's buffer supplemented with 0.5 mM pargyline and 0.5 mM ascorbate. […] The radioligand was added to a final concentration of 0.1 μM and incubated with the cells at 37° C. for 40 minutes. The incubation mixture was then removed and each well was washed three times at room temperature with Ringer's buffer. The cells remaining in the wells were lysed with 1% sodium dodecyl sulphate (SDS) and transferred to counting vials containing 5 ml of ACS scintillant (Amersham), for liquid scintillation spectrometry. For each assay, 6-8 parallel sets of wells were assayed simultaneously.
as §1, §2

L-M cells [5] = assay: [3H]-5-HT uptake by untransfected L-M cells; format: cell-based, mouse
Description: as §3, with “For each assay, 6-8 parallel sets of wells were assayed simultaneously.” left out
as §1
as §2, with “Five confluent wells were assayed at each inhibitor concentration.” left out

[6] = tested on: human L-glutamate transporter (L-Glul cells); assay: L-[3H]glutamate uptake by L-Glul cells; format: cell-based; settings: unlabelled neurotransmitters, EAA receptor ligands, co-transporter inhibitors
Description: Both L-Glul and L-M cells were assessed for their kinetic properties of [^3 H] Glu uptake, and the results were analyzed by fitting to Michaelis-Menten kinetics. This was done by incubating cells with differing concentrations of [^3 H] Glu (ranging from 0.05 to 2 μM) for 10 minutes, at both 37° C. and 0° C. The amount of [^3 H] Glu retained by the cells following incubation was then quantitated and converted (using the manufacturer's specific activity for [^3 H] Glu to the corresponding picomole-equivalent of the radioligand, for each concentration of radioligand at each temperature. Then, the pmol value is normalized by the length of incubation and the amount of protein corresponding to the number of cells assayed. The resulting value, expressed in units of pmol/min/mg protein, is the initial velocity value for each concentration of [^3 H] Glu at each temperature. The initial velocity measured at 37° C. represents total initial velocity; the initial velocity measured at 0° C. represents nonspecific initial velocity. The difference between these two velocity values is then the specific initial velocity, denoted by "V", for each concentration of [^3 H] Glu.
Various drugs specific for excitatory amino acid (EAA) receptor subtypes were assessed for their effects on [^3 H] Glu uptake by L-Glul cells.
Glu uptake by L-Glul cells.

Rat Synaptosomes = settings: literature values; read-out: Representative IC50, Rat Synaptosomes; cited from earlier work
[7] = tested on: Cultured Astrocytes (rat); settings: read-out: Representative IC50, Cultured Astrocytes (rat); literature values; cited from earlier work
L-M cells [8] = settings: 2 to 500 μM [3H]GABA, low-affinity system
Purified Synaptosomes = settings: literature value, reference printed beside it; read-out: Representative IC50, Purified Synaptosomes; cited from earlier work
Synaptosomes = settings: literature values; read-out: Representative IC50, Synaptosomes; cited from earlier work
Rabbit Platelets = settings: read-out: Representative IC50, Rabbit Platelets; literature value; cited from earlier work
Human Platelets = settings: literature values; read-out: Representative IC50, Human Platelets; cited from earlier work
NCCc1c[nH]c2ccc(O)cc12 [9] = tested on: T3, NCCc1c[nH]c2ccc(O)cc12; assay: [3H]-5-HT uptake by L-S1 cells; format: cell-based, human; settings: other: 10 min, 37° C. minus 0° C., Lineweaver-Burk
T3 construct: expressed in transfected cells; host or cells: mouse L-M fibroblasts (ATCC CCL 1.2) transfected with total human genomic DNA and pSV2neo; clone L-S1

NCCc1c[nH]c2ccc(O)cc12 [10] = tested on: T4, NCCc1c[nH]c2ccc(O)cc12; assay: [3H]-5-HT uptake by L-S2 cells; format: cell-based, human; settings: other: 10 min, 37° C. minus 0° C., Lineweaver-Burk
T4 construct: expressed in transfected cells; host or cells: mouse L-M fibroblasts (ATCC CCL 1.2) transfected with total human genomic DNA and pSV2neo; clone L-S2

[11] = ligand 10 μM, 10 min preincubation, 0.1 μM [3H]-5HT, 40 min, 37° C. (FIG. 1)

T1 sequence (P31645 whole entry): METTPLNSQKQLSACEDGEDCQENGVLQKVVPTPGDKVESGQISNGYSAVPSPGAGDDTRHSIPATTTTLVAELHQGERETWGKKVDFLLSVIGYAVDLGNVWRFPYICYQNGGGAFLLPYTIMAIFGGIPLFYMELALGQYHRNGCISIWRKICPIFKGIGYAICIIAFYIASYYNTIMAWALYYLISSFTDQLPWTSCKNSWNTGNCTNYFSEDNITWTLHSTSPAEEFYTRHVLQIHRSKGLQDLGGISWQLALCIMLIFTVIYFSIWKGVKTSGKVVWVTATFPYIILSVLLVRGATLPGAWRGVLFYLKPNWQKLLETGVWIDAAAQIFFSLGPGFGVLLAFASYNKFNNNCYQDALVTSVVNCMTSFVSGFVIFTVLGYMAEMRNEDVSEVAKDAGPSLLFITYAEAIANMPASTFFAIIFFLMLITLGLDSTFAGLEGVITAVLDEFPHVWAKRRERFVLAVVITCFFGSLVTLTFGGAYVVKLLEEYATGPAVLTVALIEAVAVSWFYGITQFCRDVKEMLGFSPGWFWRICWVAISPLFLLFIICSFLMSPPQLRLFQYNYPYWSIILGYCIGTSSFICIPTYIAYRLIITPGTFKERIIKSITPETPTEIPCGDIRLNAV
T2 sequence (P31645 whole entry): as above

Compound: O=C(O)C1CCCNC1 (racemic) [NA, (±)nipecotic acid]
- inhibition of total [3H]GABA uptake by L-GAB1 cells [1]: less than 20%
- effect of GABA uptake inhibitors on [3H]GABA uptake by L-GAB1 cells [1]: some effect
- IC50 [2]: 10 to 200 µM

Compound: O=C(O)[C@@H]1CNCC[C@@H]1O (relative stereo) [4-cis-OHNA, 4-cis-hydroxynipecotic acid]
- effect of GABA uptake inhibitors on [3H]GABA uptake by L-GAB1 cells [1]: without measurable effect
- IC50 [2]: 10 to 200 µM

Compound: NCCc1c[nH]c2ccc(O)cc12 [5-HT, serotonin]
- effect of excess unlabelled 5-HT on [3H]5-HT uptake, L-S1 ([3]; kinetic assay, Lineweaver-Burk): significantly inhibited
- effect of competing ligand on [3H]-5HT uptake, L-S1 [3, 11]: significantly inhibited
- effect of excess unlabelled 5-HT on [3H]5-HT uptake, L-S2 ([4]; kinetic assay, Lineweaver-Burk): significantly inhibited
- effect of competing ligand on [3H]-5HT uptake, L-S2 [4, 11]: significantly inhibited
- effect on 5-HT uptake activity of untransfected L-M cells (L-M cells [5]): unaffected
- effect on [3H]Glu uptake by L-Glul cells [6]: only unlabelled L-glutamate seems to mediate some inhibition
- IC50 (Rat Synaptosomes): 150 nM

Compound: COc1ccc2[nH]cc(CCN)c2c1 [5-methoxytryptamine]
- IC50 [3]: 3.5 µM
- IC50 [4]: 1500 nM
- IC50 (Rat Synaptosomes): 25000 nM

Compound: CN(C)CCC=C1c2ccccc2CCc2ccccc21 [Amitriptyline, amitriptyline]
- IC50 [7]: 140 nM

Compound: NCCC(N)C(=O)O (stereo not shown) [DABA, 2,4-diaminobutyric acid]
- inhibition of total [3H]GABA uptake by L-GAB1 cells [1]: less than 20%
- effect of GABA uptake inhibitors on [3H]GABA uptake by L-GAB1 cells [1]: some effect
- IC50 [2]: 10 to 200 µM

Compound: CNCCCN1c2ccccc2CCc2ccccc21 [Desipramine, desipramine]
- IC50 [7]: 620 nM

Compound: NCCCC(=O)O [GABA, γ-aminobutyric acid]
- transport Vmax of GABA, additional component in L-GAB1 cells ([1]; 2 to 500 μM [3H]GABA, L-M profile subtracted): 2.4 pmol/min/mg protein
- Km ([1]; 2 to 500 μM [3H]GABA, L-M profile subtracted, read-out: transport Km of GABA, additional component in L-GAB1 cells): 110 µM
- transport Vmax of GABA, system common to L-M and L-GAB1, L-GAB1 cells ([1]; 2 to 500 μM [3H]GABA, low-affinity system): 2.1 pmol/min/mg protein
- Km ([1]; 2 to 500 μM [3H]GABA, low-affinity system, read-out: transport Km of GABA, system common to L-M and L-GAB1, L-GAB1 cells): 697 µM
- transport Vmax of GABA, L-M cells (L-M cells [8]): 2.1 pmol/min/mg protein
- Km (L-M cells [8]; read-out: transport Km of GABA, L-M cells): 697 µM
- Km ([2]; read-out: Km of high-affinity GABA transport systems in the CNS): < 25 µM and 50 to 100 µM

Compound: O=C(O)C1=CCCNC1 [Guvacine]
- effect of GABA uptake inhibitors on [3H]GABA uptake by L-GAB1 cells [1]: without measurable effect
- IC50 [2]: 10 to 200 µM

Compound: CN(C)CCCN1c2ccccc2CCc2ccccc21 [Imipramine, imipramine]
- effect of competing ligand on [3H]-5HT uptake, L-S1 [3]: significantly inhibited
- effect of competing ligand on [3H]-5HT uptake, L-S2 [4]: significantly inhibited
- mechanism of inhibition of 5-HT uptake, L-S2 [4]: competitive inhibition
- effect on 5-HT uptake activity of untransfected L-M cells (L-M cells [5]): unaffected
- IC50 (Purified Synaptosomes): 210 nM
- IC50 (Synaptosomes): 100 nM
- IC50 [7]: 140 nM

Compound: COc1ccc2[nH]cc(CCNC(C)=O)c2c1 [N-Acetyl-5-methoxytryptamine, N-acetyl-5-methoxytryptamine]
- IC50 (Rat Synaptosomes): 66000 nM

Compound: NC[C@H](O)c1ccc(O)c(O)c1 [Norepinephrine, norepinephrine]
- effect on [3H]Glu uptake by L-Glul cells [6]: only unlabelled L-glutamate seems to mediate some inhibition
- ligand-specificity of [3H]GABA uptake by L-GAB1 cells [1]: not inhibited
- IC50 (Rat Synaptosomes): > 10000 nM

Compound: CNCCC=C1c2ccccc2CCc2ccccc21 [Nortriptyline, nortriptyline]
- IC50 (Rabbit Platelets): 900 nM

Compound: NCCc1c[nH]c2ccccc12 [Tryptamine, tryptamine]
- IC50 [3]: 0.13 µM
- IC50 [4]: 900 nM
- IC50 (Rat Synaptosomes): 2800 nM
- IC50 (Human Platelets): 2.7 µM

Compound: c1ccc2c3c([nH]c2c1)CNCC3 [Tryptoline]
- IC50 [3]: 4 µM
- inhibition of [3H]-5-HT uptake in words, L-S1 [3]: relatively ineffective
- IC50 [4]: 8000 nM
- inhibition of [3H]-5-HT uptake in words, L-S2 [4]: relatively ineffective
- IC50 (Rat Synaptosomes): 2500 nM
- IC50 (Human Platelets): 3.8 µM

Compound: N[C@@H](Cc1ccccc1)C(=O)O [phenylalanine]
- effect of competing ligand on [3H]-5HT uptake, L-S1 [3, 11]: nor the amino acid substrates for catecholamine synthesis, phenylalanine and tyrosine, inhibited uptake of 5-HT
- effect of competing ligand on [3H]-5HT uptake, L-S2 [4, 11]: nor the amino acid substrates for catecholamine synthesis, phenylalanine and tyrosine, inhibited uptake of 5-HT
- ligand-specificity of [3H]GABA uptake by L-GAB1 cells [1]: not sensitive

Compound: N[C@@H](Cc1c[nH]c2ccccc12)C(=O)O [tryptophan]
- effect of competing ligand on [3H]-5HT uptake, L-S1 [3, 11]: Neither tryptophan, the amino acid precursor of serotonin, nor the amino acid substrates for catecholamine synthesis, phenylalanine and tyrosine, inhibited uptake of 5-HT
- effect of competing ligand on [3H]-5HT uptake, L-S2 [4, 11]: Neither tryptophan, the amino acid precursor of serotonin, nor the amino acid substrates for catecholamine synthesis, phenylalanine and tyrosine, inhibited uptake of 5-HT
- ligand-specificity of [3H]GABA uptake by L-GAB1 cells [1]: not sensitive

Compound: N[C@@H](Cc1ccc(O)cc1)C(=O)O [tyrosine]
- effect of competing ligand on [3H]-5HT uptake, L-S1 [3]: nor the amino acid substrates for catecholamine synthesis, phenylalanine and tyrosine, inhibited uptake of 5-HT
- effect of competing ligand on [3H]-5HT uptake, L-S2 [4]: nor the amino acid substrates for catecholamine synthesis, phenylalanine and tyrosine, inhibited uptake of 5-HT
- ligand-specificity of [3H]GABA uptake by L-GAB1 cells [1]: not sensitive

Compound: human 5HT transporter (L-S1 cells) (Homo sapiens)
- Km (NCCc1c[nH]c2ccc(O)cc12 [9]): 0.390 ± 0.096 µM
- Vmax (NCCc1c[nH]c2ccc(O)cc12 [9]): 2.14 ± 0.55 pmol/mg/min

Compound: human 5HT transporter (L-S2 cells) (Homo sapiens)
- Km (NCCc1c[nH]c2ccc(O)cc12 [10]): 0.234 ± 0.027 µM
- Vmax (NCCc1c[nH]c2ccc(O)cc12 [10]): 1.33 ± 0.13 pmol/mg/min
